Each structure is given as a SMILES string. pIC50: −log10 of the molar value.

Format in all cases: biochemical
The target of one experiment is hFEN1 (Homo sapiens (Human), UniProt P39748). Briefly: Enzymatic IC50 assay, FAM-labeled DNA oligomer substrate, fluorescence intensity (FEN1). The conditions noted are these: hFEN1 70 pM, substrate 100 nM, reaction time 20 minutes, 23° C. Put shortly: (§1)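 FEN1, EXO1 or XPG was preincubated 15 min with compound, then the FAM-labelled DNA oligomer substrate was added in Tris-HCl pH 8.0 with 10 mM MgCl2 at 23° C. FEN1 was 70 pM with 100 nM substrate for 20 min, EXO1 6 nM with 30 nM for 60 min, and XPG 100 nM with 100 nM for 120 min. Reactions were EDTA-stopped and read by fluorescence intensity.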
Sequence of hFEN1 (P39748 whole entry): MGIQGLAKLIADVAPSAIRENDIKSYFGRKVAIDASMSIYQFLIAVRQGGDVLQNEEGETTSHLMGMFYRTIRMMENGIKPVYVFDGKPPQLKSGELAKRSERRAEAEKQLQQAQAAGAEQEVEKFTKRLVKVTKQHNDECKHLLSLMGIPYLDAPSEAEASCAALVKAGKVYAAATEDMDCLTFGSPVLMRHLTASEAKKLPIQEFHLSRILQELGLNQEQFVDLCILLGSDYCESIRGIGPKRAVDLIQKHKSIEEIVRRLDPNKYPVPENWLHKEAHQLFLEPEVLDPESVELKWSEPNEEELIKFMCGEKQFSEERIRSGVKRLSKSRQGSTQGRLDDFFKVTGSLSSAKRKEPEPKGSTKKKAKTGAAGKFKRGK

The target in a further experiment is hEXO1, Isoform1 (Homo sapiens (Human), UniProt Q9UQ84). The experiment is described as follows: Enzymatic IC50 assay, FAM-labeled DNA oligomer substrate, fluorescence intensity (EXO1). The conditions noted are these: hEXO1 6 nM, substrate 30 nM, reaction time 60 minutes, 23° C. An outline of the steps:
as §1

In another experiment the target is hXPG (Homo sapiens (Human), UniProt P28715). The experiment is described as follows: Enzymatic IC50 assay, FAM-labeled DNA oligomer substrate, fluorescence intensity (XPG). The conditions noted are these: hXPG 100 nM, substrate 100 nM, reaction time 120 minutes, 23° C. As to the method: FEN1, EXO1 or XPG enzyme was incubated with compound or vehicle (DMSO) and the FAM-labeled DNA oligomer substrate in a microtiter plate. The stop buffer contains EDTA to stop the enzymatic reaction. The plate is read for fluorescence intensity. The high control (DMSO) with high fluorescence intensity represents no inhibition of enzymatic reaction while the low control (10 μM) with low fluorescence intensity represents full inhibition of enzymatic reaction.
Sequence of hXPG (P28715 whole entry, canonical isoform): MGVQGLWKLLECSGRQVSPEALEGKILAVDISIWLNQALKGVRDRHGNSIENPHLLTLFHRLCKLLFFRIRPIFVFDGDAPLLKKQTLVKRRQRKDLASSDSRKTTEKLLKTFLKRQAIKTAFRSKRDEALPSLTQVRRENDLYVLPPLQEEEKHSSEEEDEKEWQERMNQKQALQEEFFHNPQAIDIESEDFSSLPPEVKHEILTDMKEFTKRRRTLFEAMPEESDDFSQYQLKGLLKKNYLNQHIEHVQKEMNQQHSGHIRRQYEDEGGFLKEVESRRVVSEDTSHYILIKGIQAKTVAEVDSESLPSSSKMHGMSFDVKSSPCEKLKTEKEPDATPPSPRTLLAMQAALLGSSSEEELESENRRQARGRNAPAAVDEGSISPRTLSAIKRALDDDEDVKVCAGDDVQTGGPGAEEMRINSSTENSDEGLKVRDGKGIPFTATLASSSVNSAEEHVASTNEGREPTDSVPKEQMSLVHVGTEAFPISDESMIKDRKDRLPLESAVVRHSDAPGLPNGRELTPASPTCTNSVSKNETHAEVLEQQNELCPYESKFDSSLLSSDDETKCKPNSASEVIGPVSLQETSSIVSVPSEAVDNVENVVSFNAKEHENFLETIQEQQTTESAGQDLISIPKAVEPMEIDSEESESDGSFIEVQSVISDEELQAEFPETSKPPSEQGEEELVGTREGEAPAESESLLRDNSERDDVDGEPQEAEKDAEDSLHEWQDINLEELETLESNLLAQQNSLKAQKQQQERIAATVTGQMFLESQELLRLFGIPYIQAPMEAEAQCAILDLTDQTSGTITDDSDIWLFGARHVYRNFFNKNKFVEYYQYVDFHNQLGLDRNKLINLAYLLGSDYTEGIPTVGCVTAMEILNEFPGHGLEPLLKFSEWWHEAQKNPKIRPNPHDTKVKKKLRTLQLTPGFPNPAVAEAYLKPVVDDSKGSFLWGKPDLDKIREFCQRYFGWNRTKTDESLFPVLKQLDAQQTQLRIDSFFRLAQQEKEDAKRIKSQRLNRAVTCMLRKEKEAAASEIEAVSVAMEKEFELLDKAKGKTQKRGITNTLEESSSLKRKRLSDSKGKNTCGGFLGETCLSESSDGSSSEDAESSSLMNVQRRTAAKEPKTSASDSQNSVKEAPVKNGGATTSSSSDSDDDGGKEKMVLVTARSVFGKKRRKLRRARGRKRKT
• FEN1 • hFEN1: 70 pM • Substrate: 100 nM • Reaction time: 20 minutes • EXO1 • hEXO1: 6 nM, Isoforml • Substrate: 30 nM • Reaction time: 60 minutes • XPG • hXPG: 100 nM • Substrate: 100 nM • Reaction time: 120 minutes
Annealing Buffer: 50 mM Tris-HCl, 50 mM NaCl, 1 mM DTT Assay buffer: 50 mM Tris-HCl pH 8.0, 10 mM MgCl2, 0.01% BSA, 1 mM DTT Stop buffer: 50 mM EDTA in assay buffer Temperature: 23° C. Total volume: 40 μl Controls: • 0% inhibition control: DMSO • 100% inhibition control: 10 μM (final) 5-chloro-3-hydroxy-1,3-dihydroquinazoline-2,4-dione Enzyme Reaction and Detection: • 1. Prepare 25 μM intermediate stock of the substrate by diluting SEQ ID NO:1, SEQ ID NO:2, and SEQ ID NO:3 in annealing buffer, in a PCR tube. • 2. Place the PCR tube on a heat block, heat at 95° C. for 3 minutes, then drop in 0.2° C. increments over 2 minutes, stopping at 25° C. • 3. Remove the tube and let the tube cool at room temperature. • 4. Transfer 10 μL of 3× final concentration test compounds or DMSO to the appropriate wells of a microtiter plate. • 5. Transfer 10 μL of 3× final concentration enzyme in assay buffer or assay buffer alone to the appropriate wells. • 6. Incubate the plate at room temperature for 15 minutes. • 7. Transfer 10 μL of 3× substrate in assay buffer to all the test wells. • 8. Incubate the plate at room temperature for prescribed reaction time. • 9. Centrifuge the plate at 1000 rpm for 1 minute. • 10. Transfer 10 μL of stop buffer to all the test wells. • 11. Centrifuge the plate at 1000 rpm for 1 minute. • 12. Read the plate on a plate reader.

Sequence of hEXO1, Isoform1 (Q9UQ84 whole entry, canonical isoform): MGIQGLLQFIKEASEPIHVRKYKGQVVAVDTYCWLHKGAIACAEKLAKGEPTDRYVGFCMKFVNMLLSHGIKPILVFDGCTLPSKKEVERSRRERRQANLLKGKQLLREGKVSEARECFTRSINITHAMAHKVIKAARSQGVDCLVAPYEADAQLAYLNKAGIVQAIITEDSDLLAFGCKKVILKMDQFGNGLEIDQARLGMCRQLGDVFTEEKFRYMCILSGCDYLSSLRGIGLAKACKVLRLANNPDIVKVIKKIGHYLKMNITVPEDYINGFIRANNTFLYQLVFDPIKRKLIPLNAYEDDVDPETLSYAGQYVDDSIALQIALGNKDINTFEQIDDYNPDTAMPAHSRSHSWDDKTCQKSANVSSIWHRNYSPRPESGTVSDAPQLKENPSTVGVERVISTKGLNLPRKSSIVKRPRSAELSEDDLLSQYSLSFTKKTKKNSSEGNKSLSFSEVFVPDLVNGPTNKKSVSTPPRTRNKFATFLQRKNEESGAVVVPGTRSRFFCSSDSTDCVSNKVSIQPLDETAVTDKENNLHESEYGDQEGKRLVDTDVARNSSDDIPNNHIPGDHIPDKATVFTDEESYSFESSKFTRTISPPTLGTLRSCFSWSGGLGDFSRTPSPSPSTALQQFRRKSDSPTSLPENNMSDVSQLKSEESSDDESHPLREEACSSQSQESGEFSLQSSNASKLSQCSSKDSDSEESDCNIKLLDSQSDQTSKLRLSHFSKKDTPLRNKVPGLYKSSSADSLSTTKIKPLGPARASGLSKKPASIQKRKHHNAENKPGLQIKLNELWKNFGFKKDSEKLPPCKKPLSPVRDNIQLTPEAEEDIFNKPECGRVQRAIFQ

By pIC50 is commonly meant the IC50 on a negative log10 scale, so that one unit is a factor of ten. Low readings indicate a high IC50, high ones a low IC50. Take `O=C(O)c1c(O)c(=O)n(Cc2ccc3[nH]cnc3c2)c2ccsc12` [Example 99, 4-[(1H-benzo[d]imidazol-5-yl)methyl]-6-hydroxy-5-oxo-4,5-dihydrothieno[3,2-b]pyridine-7-carboxylic acid]: the pIC50 is over 6.70 at hFEN1; 5.65 to 6.12 against hEXO1, Isoform1; 5.00 to 5.65 at hXPG.

As to `O=C(O)c1c(O)c(=O)n(Cc2cnc3ccccc3c2)c2ccsc12` [Example 101, 6-hydroxy-5-oxo-4-(quinolin-3-ylmethyl)-4,5-dihydrothieno[3,2-b]pyridine-7-carboxylic acid], the pIC50 is 6.12 to 6.60 on hFEN1; 6.12 to 6.60 against hEXO1, Isoform1; 5.00 to 5.65 on hXPG.

Take `N#Cc1ccccc1-n1cc(Cn2c(=O)c(O)c(C(=O)O)c3sccc32)cn1` [Example 111, 4-{[1-(2-cyanophenyl)-1H-pyrazol-4-yl]methyl}-6-hydroxy-5-oxo-4,5-dihydrothieno[3,2-b]pyridine-7-carboxylic acid]: the pIC50 is 6.12 to 6.60 at hFEN1; 6.12 to 6.60 against hEXO1, Isoform1; 5.65 to 6.12 at hXPG.

For `COc1ccc(-n2cc(Cn3c(=O)c(O)c(C(=O)O)c4sccc43)cn2)cc1` [Example 113, 6-hydroxy-4-{[1-(4-methoxyphenyl)-1H-pyrazol-4-yl]methyl}-5-oxo-4,5-dihydrothieno[3,2-b]pyridine-7-carboxylic acid], the pIC50 at hFEN1 is over 6.70; against hEXO1, Isoform1, 6.12 to 6.60; on hXPG it was 5.65 to 6.12.

For `CS(=O)(=O)c1cccc(-n2cc(Cn3c(=O)c(O)c(C(=O)O)c4sccc43)cn2)c1` [Example 115, 6-hydroxy-4-({1-[3-(methylsulfonyl)phenyl]-1H-pyrazol-4-yl}methyl)-5-oxo-4,5-dihydrothieno[3,2-b]pyridine-7-carboxylic acid], the pIC50 on hFEN1 is over 6.70; against hEXO1, Isoform1 it was over 6.70; at hXPG, 5.65 to 6.12.

Turning to `CS(=O)(=O)c1ccc(-n2cc(Cn3c(=O)c(O)c(C(=O)O)c4sccc43)cn2)cc1` [Example 116, 6-hydroxy-4-({1-[4-(methylsulfonyl)phenyl]-1H-pyrazol-4-yl}methyl)-5-oxo-4,5-dihydrothieno[3,2-b]pyridine-7-carboxylic acid], the pIC50 was over 6.70 on hFEN1; 6.12 to 6.60 on hEXO1, Isoform1; 5.65 to 6.12 on hXPG.

Take `CS(=O)(=O)Nc1ccc(-n2cc(Cn3c(=O)c(O)c(C(=O)O)c4sccc43)cn2)cc1` [Example 117, 6-hydroxy-4-({1-[4-(methylsulfonamido)phenyl]-1H-pyrazol-4-yl}methyl)-5-oxo-4,5-dihydrothieno[3,2-b]pyridine-7-carboxylic acid]: the pIC50 against hFEN1 was over 6.70; at hEXO1, Isoform1, 6.12 to 6.60; against hXPG, 6.12 to 6.60.

Regarding `O=C(O)c1c(O)c(=O)n(Cc2cnn(Cc3ccccn3)c2)c2ccsc12` [Example 119, 6-hydroxy-5-oxo-4-{[1-(pyridin-2-ylmethyl)-1H-pyrazol-4-yl]methyl}-4,5-dihydrothieno[3,2-b]pyridine-7-carboxylic acid], the pIC50 at hFEN1 was over 6.70; against hEXO1, Isoform1, 5.00 to 5.65; against hXPG, under 5.00.

Turning to `O=C(O)c1c(O)c(=O)n(Cc2cnn(Cc3cccnc3)c2)c2ccsc12` [Example 120, 6-hydroxy-5-oxo-4-{[1-(pyridin-3-ylmethyl)-1H-pyrazol-4-yl]methyl}-4,5-dihydrothieno[3,2-b]pyridine-7-carboxylic acid], the pIC50 is over 6.70 on hFEN1; 5.00 to 5.65 on hEXO1, Isoform1; 5.00 to 5.65 at hXPG.

For `O=C(O)c1c(O)c(=O)n(Cc2cnn(Cc3ccncc3)c2)c2ccsc12` [Example 121, 6-hydroxy-5-oxo-4-{[1-(pyridin-4-ylmethyl)-1H-pyrazol-4-yl]methyl}-4,5-dihydrothieno[3,2-b]pyridine-7-carboxylic acid], the pIC50 at hFEN1 is over 6.70; against hEXO1, Isoform1, 5.00 to 5.65; against hXPG it was 5.00 to 5.65.

As for `O=C(O)c1c(O)c(=O)n(Cc2cnn(Cc3ccccc3)c2)c2ccsc12` [Example 122, 4-[(1-benzyl-1H-pyrazol-4-yl)methyl]-6-hydroxy-5-oxo-4,5-dihydrothieno[3,2-b]pyridine-7-carboxylic acid], the pIC50 was over 6.70 at hFEN1; 5.00 to 5.65 against hEXO1, Isoform1; 5.65 to 6.12 against hXPG.

Regarding `O=C(O)c1c(O)c(=O)n(Cc2cnn(Cc3cn4ccncc4n3)c2)c2ccsc12` [Example 125, 6-hydroxy-4-{[1-(imidazo[1,2-a]pyrazin-2-ylmethyl)-1H-pyrazol-4-yl]methyl}-5-oxo-4,5-dihydrothieno[3,2-b]pyridine-7-carboxylic acid], the pIC50 against hFEN1 is over 6.70; against hEXO1, Isoform1 it was 5.65 to 6.12; at hXPG it was 5.00 to 5.65.

`N#Cc1ccc(Cn2cc(Cn3c(=O)c(O)c(C(=O)O)c4sccc43)cn2)cc1` [Example 127, 4-{[1-(4-cyanobenzyl)-1H-pyrazol-4-yl]methyl}-6-hydroxy-5-oxo-4,5-dihydrothieno[3,2-b]pyridine-7-carboxylic acid]: the negative-log IC50 (pIC50) was over 6.70 against hFEN1; 5.65 to 6.12 on hEXO1, Isoform1; 5.00 to 5.65 on hXPG.

Regarding `N#Cc1cccc(Cn2cc(Cn3c(=O)c(O)c(C(=O)O)c4sccc43)cn2)c1` [Example 128, 4-{[1-(3-cyanobenzyl)-1H-pyrazol-4-yl]methyl}-6-hydroxy-5-oxo-4,5-dihydrothieno[3,2-b]pyridine-7-carboxylic acid], the pIC50 is over 6.70 on hFEN1; 5.00 to 5.65 against hEXO1, Isoform1; 5.00 to 5.65 on hXPG.

For `CS(=O)(=O)c1ccc(Cn2cc(Cn3c(=O)c(O)c(C(=O)O)c4sccc43)cn2)cc1` [Example 130, 6-hydroxy-4-({1-[4-(methylsulfonyl)benzyl]-1H-pyrazol-4-yl}methyl)-5-oxo-4,5-dihydrothieno[3,2-b]pyridine-7-carboxylic acid], the pIC50 against hFEN1 is over 6.70; against hEXO1, Isoform1, 5.00 to 5.65; against hXPG, 5.00 to 5.65.

`CS(=O)(=O)c1cccc(Cn2cc(Cn3c(=O)c(O)c(C(=O)O)c4sccc43)cn2)c1` [Example 131, 6-hydroxy-4-({1-[3-(methylsulfonyl)benzyl]-1H-pyrazol-4-yl}methyl)-5-oxo-4,5-dihydrothieno[3,2-b]pyridine-7-carboxylic acid]: the pIC50 against hFEN1 is over 6.70; on hEXO1, Isoform1, 5.00 to 5.65; on hXPG it was 5.00 to 5.65.

As to `O=C(O)c1c(O)c(=O)n(Cc2cnn(Cc3ccnnc3)c2)c2ccsc12` [Example 132, 6-hydroxy-5-oxo-4-{[1-(pyridazin-4-ylmethyl)-1H-pyrazol-4-yl]methyl}-4,5-dihydrothieno[3,2-b]pyridine-7-carboxylic acid], the pIC50 against hFEN1 was over 6.70; at hEXO1, Isoform1, 5.00 to 5.65; on hXPG, 5.00 to 5.65.

Take `Cc1cc(C#N)ccc1Cn1cc(Cn2c(=O)c(O)c(C(=O)O)c3sccc32)cn1` [Example 133, 4-{[1-(4-cyano-2-methylbenzyl)-1H-pyrazol-4-yl]methyl}-6-hydroxy-5-oxo-4,5-dihydrothieno[3,2-b]pyridine-7-carboxylic acid]: the pIC50 at hFEN1 is over 6.70; against hEXO1, Isoform1 it was 5.00 to 5.65; at hXPG, 5.65 to 6.12.

Turning to `NC(=O)Cn1cc(Cn2c(=O)c(O)c(C(=O)O)c3sccc32)cn1` [Example 136, 4-{[1-(2-amino-2-oxoethyl)-1H-pyrazol-4-yl]methyl}-6-hydroxy-5-oxo-4,5-dihydrothieno[3,2-b]pyridine-7-carboxylic acid], the pIC50 was over 6.70 against hFEN1; 5.00 to 5.65 on hEXO1, Isoform1; under 5.00 against hXPG.

The values are drawn from patent publication US11584755B2 (IDEAYA BIOSCIENCES, INC., priority 2017, dated 2023).
